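48-hour exposure; five concentrations; linearly interpolated endpoints. The concentration for full growth arrest is given as TGI.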
Legend:
Test in all cases: inhibition of tumour cell growth, NCI panel, 48 h
SK-MEL-2 melanoma = system: SK-MEL-2 melanoma
MOLT-4 leukemia = system: MOLT-4 leukemia
A498 renal = system: A498 renal
SR leukemia = system: SR leukemia
HL-60(TB) leukemia = system: HL-60(TB) leukemia
SK-OV-3 ovarian = system: SK-OV-3 ovarian
OVCAR-5 ovarian = system: OVCAR-5 ovarian
OVCAR-3 ovarian = system: OVCAR-3 ovarian
SF-539 CNS = system: SF-539 CNS
EKVX NSCLC = system: EKVX NSCLC
MDA-N = system: MDA-N

Row | Compound | TGI (SK-MEL-2 melanoma) [µM] | TGI (MOLT-4 leukemia) [µM] | TGI (A498 renal) [µM] | TGI (SR leukemia) [µM] | TGI (HL-60(TB) leukemia) [µM] | TGI (SK-OV-3 ovarian) [µM] | TGI (OVCAR-5 ovarian) [µM] | TGI (OVCAR-3 ovarian) [µM] | TGI (SF-539 CNS) [µM] | TGI (EKVX NSCLC) [µM] | TGI (MDA-N) [µM]
1 | S=c1sc2c(Cl)nc(Cl)nc2n1-c1ccccc1 | > 100 | > 100 | > 100 | 55.1 | 82.6 | > 100 | > 100 | 60.4 | > 100 | > 100 | 
2 | O=c1[nH]nc(Cc2ccccc2)n1/N=C/c1ccccc1O | > 100 | > 100 | > 100 |  | > 100 | > 100 | > 100 | > 100 | > 100 | > 100 | > 100
3 | CC12CC(c3ccccc3O1)C(C(=O)Nc1ccc(Cl)cc1Cl)C(=O)N2 (stereo not drawn) | > 100 | 54.5 |  |  | 21.2 | > 100 | > 100 | > 100 | > 100 | 50.2 | > 100
4 | CCOC(=O)CN1C(=O)c2ccc(NC(=O)C(=O)O)cc2S1(=O)=O | > 100 | > 100 | > 100 | > 100 | > 100 | > 100 | > 100 |  |  | > 100 | > 100
5 | O=Cc1[nH]c(=O)[nH]c(=O)c1C(=O)O | > 100 | > 100 |  | > 100 | > 100 | > 100 | > 100 | > 100 | > 100 | > 100 | > 100
6 | CCC(C)OC(=O)/C(Br)=C1/OC(=O)c2ccccc2-c2ccccc21 (stereo not drawn) | > 100 | 50.7 | > 100 |  | > 100 | > 100 | > 100 | > 100 | 52.2 | > 100 | > 100
7 | N#Cc1c(-c2ccc(Cl)cc2Cl)nc2[nH][nH]c(=S)n2c1=O | > 100 | > 100 | > 100 | > 100 | > 100 | > 100 | > 100 |  |  | > 100 | > 100
8 | Cn1c(=O)c2c(nc(Cc3ccccc3)n2CC(=O)O)n(C)c1=O | > 100 | > 100 | > 100 |  |  |  | > 100 | > 100 |  | > 100 | > 100
9 | C[C@H](CCC(=O)O)[C@H]1CC[C@H]2[C@@H]3CC[C@@H]4C[C@H](O)CC[C@]4(C)[C@H]3C[C@H](O)[C@]12C | > 100 | 62.3 | > 100 |  | 67.1 | 78.1 | > 100 | 52.1 | 99 | > 100 | > 100
10 | O=C(O)CCC(NC(=O)c1ccc(Nc2nc3cc(C(F)(F)F)ccc3nc2-c2ccccc2)cc1)C(=O)O (stereo not drawn) | > 100 | > 100 | > 100 |  | > 100 | > 100 | > 100 | > 100 | > 100 | > 100 | 
11 | C/C=C(/C)C(=O)O[C@@H]1CCN2CC[C@H](COC(=O)/C(=C/C)CO)C12 (stereo partly drawn) | > 100 | > 100 |  | > 100 | > 100 | > 100 | > 100 | > 100 | > 100 | > 100 | > 100
12 | COC(CNC(=O)C(C)NC(=O)/C=C/c1ccccc1)OC (stereo not drawn) | > 100 | > 100 |  | > 100 | > 100 | > 100 | > 100 |  | > 100 | > 100 | > 100
13 | CN(C)CCC(=O)c1ccccc1 | > 84.4 | 59.9 | > 95.5 | 57.4 | > 64.2 | > 68.8 | > 57.6 | > 73.4 | > 70.3 | > 68.8 | 
14 | COc1ccc(S(=O)(=O)c2nnc(S(=O)(=O)Cc3ccccc3)s2)cc1 | 45.1 |  | 39.9 |  |  | 44.6 | 54.5 | > 100 | 50.1 | 57.2 | 
15 | CCCNC(=S)NNC(=O)CSc1nc(-c2ccccc2)c(-c2ccccc2)[nH]1 | > 100 | 61.7 | > 100 | 93.4 | > 100 | > 100 | > 100 | 79.7 | > 100 | 89.7 | 
16 | Cc1ccccc1N1C(=O)C2C=CC(n3[nH]c(=O)n(Cc4ccccc4)c3=O)CC2C1=O (stereo not drawn) | > 100 | > 100 | > 100 |  | > 100 | > 100 | > 100 | > 100 | > 100 | > 100 | 
17 | CN=C1CC2c3cc(OC)c(OC)cc3CCN2C2=C1C(=O)CC(C)(C)C2 (stereo not drawn) | > 100 | > 100 | > 100 | > 100 | > 100 |  | > 100 | > 100 | > 100 | > 100 | 
18 | CCCCCCOC(=O)/C=C/[C@]1(CO)C/C(=C/CC(C(C)C)C(C)C)C(=O)O1 | 30.7 | 25.6 | 20.6 |  | 23.2 | 37.7 | 25.6 | 29.8 |  | 13.4 | 5.35
19 | CSc1nc(Nc2cccc(C(F)(F)F)c2)c2c(N)nn(C)c2n1 | > 100 | > 100 | > 100 |  |  | > 100 | > 100 | > 100 |  |  | > 100
20 | OC1C#CCSCC#C/C=C\1 (stereo not drawn) | > 100 |  | > 100 | > 100 | 71.8 | > 100 | > 100 | > 100 | > 100 | > 100 | > 100
21 | CC(C)C(=O)OCC1OC(n2c(Br)nc3c(=O)[nH]c(N)nc32)C(OC(=O)C(C)C)C1OC(=O)C(C)C (stereo not drawn) | > 100 | 48.2 |  | > 100 |  | > 100 | > 100 | > 100 |  | > 100 | > 100
22 | NNC(=O)c1n[nH]nc1C(=O)NN | > 100 | > 100 |  | > 100 | > 100 |  | > 100 | > 100 |  |  | > 100
23 | Cc1[nH]nc(C(F)(F)F)c1N=NN1CCOCC1 | 27.1 | 5.32 | 32.6 | 2.77 | 6.18 | 31.7 | 41.7 | 23 | 28.6 | 21.3 | 

Source: PubChem BioAssay (NCI)
